Values of other authors as cited in article PMC5641551, “Chemical Proteomics for Target Discovery of Head-to-Tail Cyclized Mini-Proteins” (Frontiers in Chemistry, 2017).

Test system: FK-binding protein 12
Conditions: no reference given; cited from earlier work

CO[C@H]1C[C@@H]2CC[C@@H](C)[C@@](O)(O2)C(=O)C(=O)N2CCCC[C@H]2C(=O)O[C@H]([C@H](C)C[C@@H]2CC[C@@H](O)[C@H](OC)C2)CC(=O)[C@H](C)/C=C(\C)[C@@H](O)[C@@H](OC)C(=O)[C@H](C)C[C@H](C)/C=C/C=C/C=C/1C [rapamycin]
binding to FK-binding protein 12: binds to the protein FK-binding protein 12
